Reference: ChEMBL document CHEMBL1800011, “Anti-leishmanial activity of disubstituted purines and related pyrazolo[4,3-d]pyrimidines” (Bioorg Med Chem Lett, 2011)

Tests used:
[1] = tested on: Leishmania donovani; test: Antileishmanial activity against axenic amastigotes of Leishmania donovani MHOM/SD/1962/1S-Cl2d at 30 uM after 24 hrs by alamar Blue viability assay; assay type: functional
[2] = tested on: Leishmania donovani; test: Antileishmanial activity against axenic amastigotes of Leishmania donovani MHOM/SD/1962/1S-Cl2d after 24 hrs by alamar Blue viability assay; assay type: functional, organism-based
[3] = tested on: Leishmania donovani; test: Inhibition of Leishmania donovani CRK3/CYC6 activity expressed in Escherichia coli using 15 uM ATP at 30 uM
[4] = Inhibition of Leishmania donovani CRK3/CYC6 activity expressed in Escherichia coli using 15 uM ATP

inhibition [3] | IC50 [4] | SMILES | inhibition at 30 µM [1] | EC50 [2]
70.4% | 14.6 µM | CC(C)c1n[nH]c2c(Nc3cccc(F)c3)ncnc12 | 66.6% | 23.2 µM
8.8% | > 100 µM | CC(C)n1cnc2c(NCc3cccc(O)c3)ncnc21 | 6.5% | 
-5.4% | > 100 µM | CC(C)n1cnc2c(NC3CCCCC3N)ncnc21 (stereo unspecified) | 4.5% | 
11.2% | > 100 µM | COc1ccc(CNc2ncnc3c2ncn3C(C)C)cc1O | 8.8% | 
78.8% | 6.8 µM | CC(C)c1n[nH]c2c(Nc3ccc(F)cc3)ncnc12 | 75.8% | 11.6 µM
46.5% | > 100 µM | CCCCCNc1ncnc2c(C(C)C)n[nH]c12 | 27.3% | 54.7 µM
11% | > 100 µM | CC(C)n1cnc2c(NCc3ccccc3N)ncnc21 | 6.6% | 
66.1% | 12.2 µM | CC(C)n1cnc2c(NC34CC5CC(CC(C5)C3)C4)ncnc21 | 72% | 
26.4% | > 100 µM | CC(C)n1cnc2c(NC3CCC(N)CC3)ncnc21 (stereo unspecified) | 1% | 
53.3% | 22.8 µM | CC(C)n1cnc2c(Nc3ccc(F)cc3)ncnc21 | 21.5% | 
-2.3% | > 100 µM | COc1ccc(CNc2ncnc3c2ncn3C(C)C)cc1OC | 1.9% | 
11.9% | > 100 µM | COc1cc(CNc2ncnc3c2ncn3C(C)C)ccc1O | 9.5% | 
46.8% | 28.2 µM | COc1ccc(CNc2ncnc3c(C(C)C)n[nH]c23)cc1O | 34.3% | 94 µM
35.6% | 16.1 µM | CC(C)c1n[nH]c2c(Nc3ccccc3Br)ncnc12 | 40.7% | 18.7 µM
81.3% | 9.86 µM | CC(C)c1n[nH]c2c(Nc3cccc(Cl)c3)ncnc12 | 73.3% | 12.4 µM
41% | 100 µM | COc1cc(CNc2ncnc3c(C(C)C)n[nH]c23)ccc1O | 10.4% | > 100 µM
18.5% | > 100 µM | CC(C)n1cnc2c(NCc3ccccc3)ncnc21 | 19.9% | 
19.9% | > 100 µM | COc1ccc(CNc2ncnc3c(C(C)C)n[nH]c23)cc1OC | 8.4% | > 100 µM

inhibition [3] | IC50 [4] | SMILES | inhibition at 30 µM [1] | EC50 [2]
30.4% | 49.9 µM | CC(C)n1cnc2c(Nc3cccc(F)c3)ncnc21 | 16.5% | 
68% | 11.9 µM | CC(C)c1n[nH]c2c(NCc3ccccc3O)ncnc12 | 87.4% | 35.7 µM
2.4% | > 100 µM | CC(C)c1n[nH]c2c(NC3CCCCC3N)ncnc12 (stereo unspecified) | 15.8% | > 100 µM
35.8% | 83.2 µM | CC(C)c1n[nH]c2c(NCc3cccc(O)c3)ncnc12 | 25.4% | > 100 µM
24.5% | 54.2 µM | CC(C)c1n[nH]c2c(NCc3ccccc3)ncnc12 | 29.6% | 68.6 µM
28.5% | > 100 µM | CC(C)c1n[nH]c2c(NCc3ccco3)ncnc12 | 16.6% | > 100 µM
42.3% | 58.6 µM | CC(C)c1n[nH]c2c(NCc3ccccc3N)ncnc12 | 41.3% | > 100 µM
3.2% | > 100 µM | CC(C)=CCNc1ncnc2c1ncn2C(C)C | 0.04% | 
32.5% | 57.2 µM | CC(C)=CCNc1ncnc2c(C(C)C)n[nH]c12 | 45.5% | 85 µM
93.8% | 1.82 µM | CC(C)c1n[nH]c2c(NC34CC5CC(CC(C5)C3)C4)ncnc12 | 73.2% | 1.22 µM
22.3% | > 100 µM | CC(C)n1cnc2c(Nc3cccc(Cl)c3)ncnc21 | 35.1% | 
-2.8% | > 100 µM | CC(C)n1cnc2c(NCc3ccccc3O)ncnc21 | 11.7% | 
36% | 75.5 µM | COc1ccc(CNc2ncnc3c(C(C)C)n[nH]c23)cc1 | 31.5% | 83 µM
-6.9% | > 100 µM | COc1ccc(CNc2ncnc3c2ncn3C(C)C)cc1 | 15.1% | 
35% | > 100 µM | CC(C)c1n[nH]c2c(NC3CCC(N)CC3)ncnc12 (stereo unspecified) | 3.3% | > 100 µM
3.5% | > 100 µM | CC(C)n1cnc2c(NCc3ccco3)ncnc21 | 14.5% | 
14.8% | > 100 µM | CCCCCNc1ncnc2c1ncn2C(C)C | 22.6% | 
1.8% | > 100 µM | CC(C)n1cnc2c(Nc3ccccc3Br)ncnc21 | 26.2% | 
